Like-named read-outs stand apart in the source and are kept apart here.
Legend:
[1] = molecular target: EGFR wildtype (WT) (Homo sapiens, UniProt P00533); assay: Biochemical EGFR kinase inhibition assay (Lance Ultra TR-FRET), wildtype
Procedure: (§1) Biochemical EGFR kinase assays were conducted using Lance Ultra time-resolved fluorescence resonance energy transfer (TR-FRET) technology from Perkin-Elmer. Compounds of the invention were initially diluted to 20 mM in 100% DMSO for storage and made into kinase buffer solution to create a compound concentration ranging from 0.003 μM and 10 μM.
(§2) Each kinase reactions were incubated at room temperature for 1 hour and then stopped by the addition of 4 μL of stop solution (10 mM EDTA). The specific Europium-labeled-anti-phosphopeptide antibody (PerkinElmer, AD0069) diluted in LANCE detection buffer was then added to a final concentration of 2 nM. After 60 minutes incubation at room temperature the LANCE signal was measured on an EnVision Multilabel Reader (Perkin-Elmer). Excitation wavelength was set at 320 nm and emission monitored at 615 nm (donor) and 665 nm (acceptor). The IC50 values were determined using GraphPad prism software (GraphPad Software, Inc., San Diego, CA, USA).

[2] = molecular target: EGFR Del19/T790M/C797S (Homo sapiens, UniProt P00533, C797S/DEL746-750/T790M); assay: Biochemical EGFR kinase inhibition assay (Lance Ultra TR-FRET), triple mutant del19/T790M/C797S
Sequence of EGFR Del19/T790M/C797S (P00533 with tags, fused parts or gaps DEL746-750/T790M/C797S): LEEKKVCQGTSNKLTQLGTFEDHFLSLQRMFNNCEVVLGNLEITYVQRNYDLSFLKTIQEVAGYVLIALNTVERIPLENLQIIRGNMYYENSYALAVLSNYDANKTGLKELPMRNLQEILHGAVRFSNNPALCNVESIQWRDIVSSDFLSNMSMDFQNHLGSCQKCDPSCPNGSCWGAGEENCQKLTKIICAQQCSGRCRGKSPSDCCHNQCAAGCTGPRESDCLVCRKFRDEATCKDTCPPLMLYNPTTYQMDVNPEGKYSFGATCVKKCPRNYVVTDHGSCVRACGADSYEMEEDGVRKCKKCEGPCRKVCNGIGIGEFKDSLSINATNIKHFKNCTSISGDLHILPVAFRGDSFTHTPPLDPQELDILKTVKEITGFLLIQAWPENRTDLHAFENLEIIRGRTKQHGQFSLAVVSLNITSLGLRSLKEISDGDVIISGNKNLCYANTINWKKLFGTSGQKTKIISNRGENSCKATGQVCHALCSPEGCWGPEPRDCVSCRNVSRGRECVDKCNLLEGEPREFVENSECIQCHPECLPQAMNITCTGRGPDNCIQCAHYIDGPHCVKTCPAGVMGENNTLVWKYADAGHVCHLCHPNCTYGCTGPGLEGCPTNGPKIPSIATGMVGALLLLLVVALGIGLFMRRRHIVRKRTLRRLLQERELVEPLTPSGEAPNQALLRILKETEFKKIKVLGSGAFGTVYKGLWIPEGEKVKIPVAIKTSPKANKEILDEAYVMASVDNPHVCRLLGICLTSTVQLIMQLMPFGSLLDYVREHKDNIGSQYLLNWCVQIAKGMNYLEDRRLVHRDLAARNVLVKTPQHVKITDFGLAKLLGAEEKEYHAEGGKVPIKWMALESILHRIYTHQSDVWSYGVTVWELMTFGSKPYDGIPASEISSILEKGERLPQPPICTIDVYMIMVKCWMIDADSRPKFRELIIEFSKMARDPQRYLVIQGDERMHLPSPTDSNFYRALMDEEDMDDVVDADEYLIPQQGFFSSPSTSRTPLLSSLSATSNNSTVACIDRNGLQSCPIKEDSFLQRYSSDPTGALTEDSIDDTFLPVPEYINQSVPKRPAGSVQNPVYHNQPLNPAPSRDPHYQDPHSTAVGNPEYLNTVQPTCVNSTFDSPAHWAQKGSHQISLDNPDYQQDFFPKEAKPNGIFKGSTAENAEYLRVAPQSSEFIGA
Procedure: as §1, §2

[3] = molecular target: EGFR Del19/C797S (Homo sapiens, UniProt P00533, C797S/DEL746-750); assay: Biochemical EGFR kinase inhibition assay (Lance Ultra TR-FRET), double mutant del19/C797S
Sequence of EGFR Del19/C797S (P00533 with tags, fused parts or gaps DEL746-750/C797S): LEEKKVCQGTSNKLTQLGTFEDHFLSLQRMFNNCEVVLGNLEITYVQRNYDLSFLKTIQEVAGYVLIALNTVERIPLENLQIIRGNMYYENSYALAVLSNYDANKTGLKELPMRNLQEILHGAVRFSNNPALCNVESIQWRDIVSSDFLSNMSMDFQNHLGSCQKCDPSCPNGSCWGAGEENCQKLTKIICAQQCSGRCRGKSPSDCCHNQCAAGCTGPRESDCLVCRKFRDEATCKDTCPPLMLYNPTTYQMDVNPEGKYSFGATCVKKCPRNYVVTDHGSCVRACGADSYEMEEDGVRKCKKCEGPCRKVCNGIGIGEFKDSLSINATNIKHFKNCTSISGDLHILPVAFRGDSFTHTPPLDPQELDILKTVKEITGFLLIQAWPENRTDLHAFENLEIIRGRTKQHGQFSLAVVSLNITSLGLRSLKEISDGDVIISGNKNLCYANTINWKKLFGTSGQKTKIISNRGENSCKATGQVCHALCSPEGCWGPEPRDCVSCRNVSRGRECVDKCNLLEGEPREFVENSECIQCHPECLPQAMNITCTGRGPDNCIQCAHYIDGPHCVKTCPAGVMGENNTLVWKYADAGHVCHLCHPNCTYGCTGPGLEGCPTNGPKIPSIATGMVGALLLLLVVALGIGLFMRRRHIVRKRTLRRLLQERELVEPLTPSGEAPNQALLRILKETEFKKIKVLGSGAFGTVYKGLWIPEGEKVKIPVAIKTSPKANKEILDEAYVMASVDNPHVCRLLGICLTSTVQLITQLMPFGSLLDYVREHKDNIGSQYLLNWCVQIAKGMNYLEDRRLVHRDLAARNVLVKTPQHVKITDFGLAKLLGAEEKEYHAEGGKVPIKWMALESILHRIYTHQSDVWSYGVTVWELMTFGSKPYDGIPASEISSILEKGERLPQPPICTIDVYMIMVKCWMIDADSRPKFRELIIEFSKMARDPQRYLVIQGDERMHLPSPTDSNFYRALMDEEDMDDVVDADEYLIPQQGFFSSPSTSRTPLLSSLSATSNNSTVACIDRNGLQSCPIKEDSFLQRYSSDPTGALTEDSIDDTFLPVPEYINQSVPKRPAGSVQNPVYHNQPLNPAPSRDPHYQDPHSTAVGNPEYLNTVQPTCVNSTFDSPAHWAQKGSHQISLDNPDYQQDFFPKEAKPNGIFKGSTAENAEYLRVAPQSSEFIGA
Procedure: as §1, §2

[4] = molecular target: EGFR L858R/C797S (Homo sapiens, UniProt P00533, C797S/L858R); assay: Biochemical EGFR kinase inhibition assay (Lance Ultra TR-FRET), double mutant L858R/C797S
Procedure: as §1, §2

[5] = molecular target: EGFR L858R/T790M/C797S (Homo sapiens, UniProt P00533, C797S/L858R/T790M); assay: Biochemical EGFR kinase inhibition assay (Lance Ultra TR-FRET), triple mutant L858R/T790M/C797S
Sequence of EGFR L858R/T790M/C797S (P00533 25-1210 T790M/C797S/L858R): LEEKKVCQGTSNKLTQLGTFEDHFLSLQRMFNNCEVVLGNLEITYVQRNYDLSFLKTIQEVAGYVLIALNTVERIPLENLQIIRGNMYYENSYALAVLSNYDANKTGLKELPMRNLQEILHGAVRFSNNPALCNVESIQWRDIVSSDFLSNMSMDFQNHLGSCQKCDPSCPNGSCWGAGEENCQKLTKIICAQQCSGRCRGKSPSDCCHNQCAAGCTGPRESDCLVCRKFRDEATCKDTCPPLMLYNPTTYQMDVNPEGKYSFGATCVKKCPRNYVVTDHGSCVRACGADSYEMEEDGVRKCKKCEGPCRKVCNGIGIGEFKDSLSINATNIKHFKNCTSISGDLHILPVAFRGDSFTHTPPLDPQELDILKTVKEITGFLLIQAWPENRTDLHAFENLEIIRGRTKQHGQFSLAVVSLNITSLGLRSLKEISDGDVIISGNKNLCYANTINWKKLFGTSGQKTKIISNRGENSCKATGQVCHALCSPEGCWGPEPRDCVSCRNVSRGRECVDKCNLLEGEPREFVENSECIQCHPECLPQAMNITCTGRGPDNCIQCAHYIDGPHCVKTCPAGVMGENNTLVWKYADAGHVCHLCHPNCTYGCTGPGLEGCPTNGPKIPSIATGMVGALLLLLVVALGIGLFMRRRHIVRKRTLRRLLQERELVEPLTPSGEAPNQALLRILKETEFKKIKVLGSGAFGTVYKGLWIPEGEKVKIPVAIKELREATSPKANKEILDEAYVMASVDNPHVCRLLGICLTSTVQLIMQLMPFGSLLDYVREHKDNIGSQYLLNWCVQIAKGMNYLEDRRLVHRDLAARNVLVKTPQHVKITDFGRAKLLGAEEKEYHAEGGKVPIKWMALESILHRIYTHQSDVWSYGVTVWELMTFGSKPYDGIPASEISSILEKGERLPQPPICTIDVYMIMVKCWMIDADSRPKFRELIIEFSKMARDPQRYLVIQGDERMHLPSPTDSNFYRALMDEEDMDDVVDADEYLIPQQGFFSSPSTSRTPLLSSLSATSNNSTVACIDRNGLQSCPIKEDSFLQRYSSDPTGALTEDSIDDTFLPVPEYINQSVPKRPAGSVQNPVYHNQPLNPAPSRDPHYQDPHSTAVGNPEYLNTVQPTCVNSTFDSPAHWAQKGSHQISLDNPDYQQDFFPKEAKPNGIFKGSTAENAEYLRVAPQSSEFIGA
Procedure: as §1, §2

[6] = IC50 Del19/T790M/C797S (nM), 100 μM ATP
[7] = IC50 Del19/C797S (nM), 100 μM ATP
[8] = IC50 L858R/C797S (nM), 100 μM ATP
[9] = IC50 L858R/T790M/C797S (nM), 100 μM ATP
[10] = Km ATP, read-out: IC50 WT (nM) Km ATP
[11] = Km ATP, read-out: IC50 Del19/T790M/C797S (nM) Km ATP
[12] = Km ATP, read-out: IC50 Del19/C797S (nM) Km ATP
[13] = Km ATP, read-out: IC50 L858R/C797S (nM) Km ATP
[14] = Km ATP, read-out: IC50 L858R/T790M/C797S (nM) Km ATP

Sequence of EGFR wildtype (WT) (P00533 25-1210): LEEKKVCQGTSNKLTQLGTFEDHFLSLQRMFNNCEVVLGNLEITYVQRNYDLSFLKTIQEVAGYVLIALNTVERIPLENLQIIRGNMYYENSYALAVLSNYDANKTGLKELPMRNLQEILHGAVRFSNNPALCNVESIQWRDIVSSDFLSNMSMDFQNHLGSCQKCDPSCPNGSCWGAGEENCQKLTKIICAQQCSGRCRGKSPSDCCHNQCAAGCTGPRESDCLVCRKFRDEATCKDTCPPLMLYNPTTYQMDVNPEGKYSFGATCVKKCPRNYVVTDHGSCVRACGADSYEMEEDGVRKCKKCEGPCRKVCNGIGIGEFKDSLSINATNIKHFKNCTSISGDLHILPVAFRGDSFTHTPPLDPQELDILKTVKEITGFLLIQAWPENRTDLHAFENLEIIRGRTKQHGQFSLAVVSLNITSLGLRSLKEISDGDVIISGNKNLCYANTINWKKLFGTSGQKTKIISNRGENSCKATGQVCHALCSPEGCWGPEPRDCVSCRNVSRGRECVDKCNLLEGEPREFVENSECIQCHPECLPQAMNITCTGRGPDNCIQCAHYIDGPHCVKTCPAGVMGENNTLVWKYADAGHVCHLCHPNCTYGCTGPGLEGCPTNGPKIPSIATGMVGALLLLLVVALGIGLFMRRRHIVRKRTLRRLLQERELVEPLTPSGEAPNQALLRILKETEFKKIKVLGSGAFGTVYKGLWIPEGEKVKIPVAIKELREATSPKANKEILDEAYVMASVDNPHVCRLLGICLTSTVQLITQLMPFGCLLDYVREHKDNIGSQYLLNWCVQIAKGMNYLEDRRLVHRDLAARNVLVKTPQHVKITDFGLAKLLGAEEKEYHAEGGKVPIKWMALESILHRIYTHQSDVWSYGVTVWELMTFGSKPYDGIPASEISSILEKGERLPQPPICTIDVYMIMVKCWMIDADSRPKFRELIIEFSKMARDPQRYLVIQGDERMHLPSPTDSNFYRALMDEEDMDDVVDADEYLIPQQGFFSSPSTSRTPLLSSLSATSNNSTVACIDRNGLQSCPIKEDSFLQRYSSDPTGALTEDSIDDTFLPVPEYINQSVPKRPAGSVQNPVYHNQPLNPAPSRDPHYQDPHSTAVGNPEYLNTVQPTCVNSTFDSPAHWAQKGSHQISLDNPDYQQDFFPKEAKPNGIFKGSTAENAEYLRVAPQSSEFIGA

Structure (SMILES) | IC50 ([1]; IC50 WT (nM), 100 μM ATP) [nM] | IC50 [2, 6] [nM] | IC50 [3, 7] [nM] | IC50 [4, 8] [nM] | IC50 [5, 9] [nM] | IC50 [1, 10] [nM] | IC50 [2, 11] [nM] | IC50 [3, 12] [nM] | IC50 [4, 13] [nM] | IC50 [5, 14] [nM]
Cn1cc(C#Cc2cnc(Nc3ccnc(-c4cnn(S(=O)(=O)C5CC5)c4)n3)cc2N2CCC(F)CC2)cn1 [Example 8, 2-(1-(Cyclopropylsulfonyl)-1H-pyrazol-4-yl)-N-(4-(4-fluoropiperidin-1-yl)-5-((1-methyl-1H-pyrazol-4-yl)ethynyl)pyridin-2-yl)pyrimidin-4-amine] | > 10000 | 3.1 | 9.5 | 33.2 | 2.2 |  |  |  |  | 
CC(O)C1CCN(c2cc(Nc3ccnc(-c4cnn(S(=O)(=O)C5CC5)c4)n3)ncc2C#Cc2cnn(C)c2)CC1 (centres unmarked) [Example 10, 1-(1-(2-((2-(1-(Cyclopropylsulfonyl)-1H-pyrazol-4-yl)pyrimidin-4-yl)amino)-5-((1-methyl-1H-pyrazol-4-yl)ethynyl)pyridin-4-yl)piperidin-4-yl)ethan-1-ol] | > 10000 | 0.9 | 4.4 | 12.9 | 0.7 | 31.9 | 1.1 | 3 | 2.8 | 0.5
Cn1cc(C#Cc2cnc(Nc3ccnc(-c4cnn(S(=O)(=O)C5CC5)c4)n3)cc2N2CCC(C(C)(C)O)CC2)cn1 [Example 11, 2-(1-(2-((2-(1-(Cyclopropylsulfonyl)-1H-pyrazol-4-yl)pyrimidin-4-yl)amino)-5-((1-methyl-1H-pyrazol-4-yl)ethynyl)pyridin-4-yl)piperidin-4-yl)propan-2-ol] | > 10000 | 1.6 | 9.1 | 28.5 | 1.2 |  |  |  |  | 
Cn1cc(C#Cc2cnc(Nc3ccnc(-c4cnn(S(=O)(=O)C5CC5)c4)n3)cc2N2CCC(C)(CO)CC2)cn1 [Example 12, (1-(2-((2-(1-(Cyclopropylsulfonyl)-1H-pyrazol-4-yl)pyrimidin-4-yl)amino)-5-((1-methyl-1H-pyrazol-4-yl)ethynyl)pyridin-4-yl)-4-methylpiperidin-4-yl)methanol] | 1100 | 0.8 | 1.9 | 5.1 | 0.6 | 6 | 0.7 | 1.1 | 0.7 | 0.3
COC1CCN(c2cc(Nc3ccnc(-c4cnn(S(=O)(=O)C5CC5)c4)n3)ncc2C#Cc2cnn(C)c2)CC1 [Example 15, 2-(1-(Cyclopropylsulfonyl)-1H-pyrazol-4-yl)-N-(4-(4-methoxypiperidin-1-yl)-5-((1-methyl-1H-pyrazol-4-yl)ethynyl)pyridin-2-yl)pyrimidin-4-amine] | 661 | 2.6 | 6.4 | 25.5 | 1.6 |  |  |  |  | 
CC(C)Nc1cc(Nc2ccnc(-c3cnn(S(=O)(=O)C4CC4)c3)n2)ncc1C#Cc1cnn(CCF)c1 [Example 20, N^2-(2-(1-(Cyclopropylsulfonyl)-1H-pyrazol-4-yl)pyrimidin-4-yl)-5-((1-(2-fluoroethyl)-1H-pyrazol-4-yl)ethynyl)-N^4-isopropylpyridine-2,4-diamine] | > 10000 | 2.4 | 61.5 |  | 1.6 | 517 | 1.2 | 23.1 | 20.4 | 1.3
CC(C)Nc1cc(Nc2ccnc(-c3cnn(S(=O)(=O)C4CC4)c3)n2)ncc1C#Cc1cnn(CC(F)F)c1 [Example 23, N^2-(2-(1-(Cyclopropylsulfonyl)-1H-pyrazol-4-yl)pyrimidin-4-yl)-5-((1-(2,2-difluoroethyl)-1H-pyrazol-4-yl)ethynyl)-N^4-isopropylpyridine-2,4-diamine] |  |  |  |  |  | 907 | 1.6 | 77.7 | 92.5 | 7.1
Cn1cc(C#Cc2cnc(Nc3ccnc(-c4cnn(S(=O)(=O)C5CC5)c4)n3)cc2N2CCC(O)CC2)cn1 [Example 27, 1-(2-((2-(1-(Cyclopropylsulfonyl)-1H-pyrazol-4-yl)pyrimidin-4-yl)amino)-5-((1-methyl-1H-pyrazol-4-yl)ethynyl)pyridin-4-yl)piperidin-4-ol] | > 10000 | 0.6 | 4.1 | 27.8 | 1.5 | 22 | 0.6 | 4 | 3.6 | 
O=S(=O)(C1CC1)n1cc(-c2nccc(Nc3cc(N4CCC(O)CC4)c(C#Cc4cnn(CCF)c4)cn3)n2)cn1 [Example 28, 1-(2-((2-(1-(Cyclopropylsulfonyl)-1H-pyrazol-4-yl)pyrimidin-4-yl)amino)-5-((1-(2-fluoroethyl)-1H-pyrazol-4-yl)ethynyl)pyridin-4-yl)piperidin-4-ol] | > 10000 | 0.7 | 4.9 | 28.1 | 2.3 |  |  |  |  | 
O=S(=O)(C1CC1)n1cc(-c2nccc(Nc3cc(N4CCC(CO)CC4)c(C#Cc4cnn(CCF)c4)cn3)n2)cn1 [Example 30, (1-(2-((2-(1-(Cyclopropylsulfonyl)-1H-pyrazol-4-yl)pyrimidin-4-yl)amino)-5-((1-(2-fluoroethyl)-1H-pyrazol-4-yl)ethynyl)pyridin-4-yl)piperidin-4-yl)methanol] | > 10000 | 1.3 | 2.8 | 22.3 | 1.4 | 8.2 | 0.9 | 3 | 4.4 | 

Second part, the compound after the results:

IC50 ([1]; IC50 WT (nM), 100 μM ATP) [nM] | IC50 [2, 6] [nM] | IC50 [3, 7] [nM] | IC50 [4, 8] [nM] | IC50 [5, 9] [nM] | IC50 [1, 10] [nM] | IC50 [2, 11] [nM] | IC50 [3, 12] [nM] | IC50 [4, 13] [nM] | IC50 [5, 14] [nM] | Structure (SMILES)
> 10000 | 1.9 | 3.8 | 27.5 | 1.1 | 52.8 | 0.7 | 2.8 | 2.2 | 0.4 | Cn1cc(C#Cc2cnc(Nc3ccnc(-c4cnn(S(=O)(=O)C5CC5)c4)n3)cc2N2CCCC(CO)C2)cn1 (centres unmarked) [Example 9, (1-(2-((2-(1-(Cyclopropylsulfonyl)-1H-pyrazol-4-yl)pyrimidin-4-yl)amino)-5-((1-methyl-1H-pyrazol-4-yl)ethynyl)pyridin-4-yl)piperidin-3-yl)methanol]
3090 | 1.4 | 3.3 | 9.2 | 1.1 |  |  |  |  |  | Cn1cc(C#Cc2cnc(Nc3ccnc(-c4cnn(S(=O)(=O)C5CC5)c4)n3)cc2N2CCC3(CC2)CC(C)(O)C3)cn1 [Example 13, 7-(2-((2-(1-(Cyclopropylsulfonyl)-1H-pyrazol-4-yl)pyrimidin-4-yl)amino)-5-((1-methyl-1H-pyrazol-4-yl)ethynyl)pyridin-4-yl)-2-methyl-7-azaspiro[3.5]nonan-2-ol]
> 10000 | 3.9 | 21.7 | 41 | 3 |  |  |  |  |  | Cn1cc(C#Cc2cnc(Nc3ccnc(-c4cnn(S(=O)(=O)C5CC5)c4)n3)cc2N2CCC(C(C)(C)CO)CC2)cn1 [Example 14, 2-(1-(2-((2-(1-(Cyclopropylsulfonyl)-1H-pyrazol-4-yl)pyrimidin-4-yl)amino)-5-((1-methyl-1H-pyrazol-4-yl)ethynyl)pyridin-4-yl)piperidin-4-yl)-2-methylpropan-1-ol]
> 10000 | 2 | 10.3 | 53.3 | 6.1 |  |  |  |  |  | O=S(=O)(C1CC1)n1cc(-c2nccc(Nc3cc(N4CCC(CCO)CC4)c(C#Cc4cnn(CCF)c4)cn3)n2)cn1 [Example 17, 2-(1-(2-((2-(1-(Cyclopropylsulfonyl)-1H-pyrazol-4-yl)pyrimidin-4-yl)amino)-5-((1-(2-fluoroethyl)-1H-pyrazol-4-yl)ethynyl)pyridin-4-yl)piperidin-4-yl)ethan-1-ol]
8000 | 1.8 | 2.7 | 28.1 | 2.3 |  |  |  |  |  | Cn1cc(C#Cc2cnc(Nc3ccnc(-c4cnn(S(=O)(=O)C5CC5)c4)n3)cc2N2CCC(CO)CC2)cn1 [Example 29, (1-(2-((2-(1-(Cyclopropylsulfonyl)-1H-pyrazol-4-yl)pyrimidin-4-yl)amino)-5-((1-methyl-1H-pyrazol-4-yl)ethynyl)pyridin-4-yl)piperidin-4-yl)methanol]
> 10000 | 0.7 | 6.5 | 52.3 | 1.4 |  |  |  |  |  | Cn1cc(C#Cc2cnc(Nc3ccnc(-c4cnn(S(=O)(=O)C5CC5)c4)n3)cc2N2CC[C@@H](O)C2)cn1 [Example 31, (R)-1-(2-((2-(1-(Cyclopropylsulfonyl)-1H-pyrazol-4-yl)pyrimidin-4-yl)amino)-5-((1-methyl-1H-pyrazol-4-yl)ethynyl)pyridin-4-yl)pyrrolidin-3-ol]
